According to patent publication US20240060131A1, “METHOD FOR IDENTIFYING AND/OR REGULATING SENESCENCE” (INSTITUTE OF ZOOLOGY, CHINESE ACADEMY OF SCIENCES, priority 2020, published 2024):

How the values were obtained:
[1] = tested on: WS hMPC; assay: Ki67 and SA-β-gal staining of WS hMPC treated with retrovirus inhibitors; type: cell-based, human; details: WS hMPCs, 10 μM lamivudine (3TC), abacavir (0.2 μM), Raltegravir, vs DMSO solvent control
Method: Cells seeded on coverslip (Thermo Fisher Scientific) were washed by PBS, fixed in 4% paraformaldehyde (PFA), permeabilized in 0.4% Triton X-100, blocked by 10% donkey serum. The coverslip was incubated with primary antibody at 4° C. in blocking buffer, then incubated with secondary antibody at room temperature for 1 h. Nucleus was labelled by Hoechst 33342 (Invitrogen).
For treatment by endogenous viral reverse transcriptase inhibitor and integrase inhibitor, hMPCs were treated by […] abacavir, lamivudine (3TC) and Raltegravir, respectively, medium was replaced every 3 days, followed by new treatment. After treatment of two cell passages, cells were used for Ki67 immunofluorescence, SA-β-gal staining and RNA/DNA extraction.
Cells were fixed by a buffer containing 2% (w/v) formaldehyde and 0.2% (w/v) glutaraldehyde for 5 min, and treated by staining buffer containing 1 mg/mL X-gal at 37° C. overnight.
10 μM lamivudine (3TC), abacavir (0.2 μM) and Raltegravir were added to WS hMPC, respectively, incubated at 37° C., and fresh medium containing each drug was replaced every two days, solvents dissolving above-mentioned drug with DMSO added at a corresponding amount were used as control.
Above-mentioned cells were stained by Ki67 and SA-β-gal.

[2] = tested on: HERVK; assay: HERVK transposition events (reporter, flow cytometry) and DNA copy number in WS hMPC; type: cell-based, human; details: 10 days after incubation
Method: The experiment for detecting DNA of HERVK gene by single molecule DNA-FISH was conducted by the National Key Laboratory of Agricultural Microbiology, Huazhong Agricultural University. Senescent cells were successively treated by RNase A (100 μg/mL, dissolved in 2×SSC) at 37° C. for 1 h, treated by 70% formamide dissolved in 2×SSC at 72° C. for 10 min, treated by precooled ethanol (concentration from 80%, 90% to 100%, each treatment for 1 min). Then cells were incubated with HERVK […] specific probe pairs (each probe 10 μM) in hybridization solution (10% deionized formamide, 2×SSC, 10% dextran sulfate and 2 mM VRC) at 42° C. overnight. Washed 3 times by washing buffer (2×SSC, 30% formamide, 0.1% Triton-X 100 and 2 mM VRC), cells were incubated with amplification probes (SFSP-001 and SFTP-001, Spatial FISH, Co., Ltd.) and fluorescent probes (SFFP-001, Spatial FISH, Co., Ltd) together, HERVK DNA was subjected to single molecule detection. Finally, cells were counterstained by DAPI and imaged by confocal microscope.
In brief, to assess transposition events occurred in HERVK during aging process, wild type mesenchymal stem cells of early passage and late passage (P7 generation and P14 generation) were transfected with HERVK reporter plasmid, and meanwhile co-transfected with dsRed, a vector expressing red fluorescence (obtained from Xu Xingzhi's Laboratory, School of Basic Medicine, Shenzhen University) to calculate transfection probability. After the confluence of cells, cells were digested into single cell, and resuspended by PBS, analyzed by flow cytometer BD Influx, the ratio of cells positive for green fluorescence to cells positive for red fluorescence was the probability of transposition events occurred in HERVK.
To construct HERVK transposition reporter vector, first, above-mentioned HERVK fragment was cloned to dsRed vector having KpnI enzyme site mutant (obtained from Xu Xingzhi's Laboratory, School of Basic Medicine, Shenzhen University). GFP reporter (SEQ ID NO: 152) was obtained by PCR amplification from L 1 reporter (gifted by Prof. Wang Jichang, Sun Yat-sen University in Guangzhou, China), GFP reporter was inserted to dsRed-HERVK through KpnI site, contructing HERVK transposition reporter vector.
To assess transposition events occurred for HERVK during aging process, cells of early and late generations were transfected with HERVK reporter plasmid, and meanwhile co-transfected with a vector expressing red fluorescence to calculate transfection probability. After confluence of cells, cells were digested into single cell, and resuspended with PBS, analyzed by flow cytometer BD Influx, the ratio of cells positive for green fluorescence to cells positive for red fluorescence was the probability of transposition events occurred in HERVK. […]

[3] = tested on: old mice; assay: Abacavir injected to articular cavity of old mice (joint aging); type: in vivo, mouse
Method: 10 μl Abacavir (in PBS with 2% DMSO) at the concentration of 10 mg/ml was injected to knee joint cavities of mice of 22 months old (n=12), injected once a week. Grip strength test was performed 4 weeks, 8 weeks and 12 weeks after the first injection. Motor coordination and balance, motor ability and Micro-CT were performed 14 weeks after the first injection, samples were taken, i.e., joints of mice hind limbs were taken out, one was frozen in liquid nitrogen and the other was fixed in 4% PFA.
(§1) Grip strength of the limbs was measured by Grip strength meter (Panlab Grip Strength Meter, LE902) in accordance with the manufacturer's instructions. In brief, mice were put on the top of grip strength meter and pulled along the grid at a constant rate, until mice loosened its grip. The peak tension in each of the 10 repeats was recorded, and the mean value was calculated as grip strength for each mouse.
Mice were placed on a running machine (SANS Bio Instrument, SA101) to test the motor ability of mice in accordance with the manufacturer's instructions. In particular, slope of runway was set as 5°, electrical stimulation was 2 mA, the running speed was set as follows: an initial velocity of 5 m/min for 5 min; then accelerating to final velocity of 25 m/min with an accelerated rate of 1 m/min 2, 20 mins in total. First, mice were trained for three consecutive days, and tested on the fourth day. The times of electrical stimulation, and the run distance in […] were recorded.
Micro-CT (PE Quantum FX) was performed in accordance with the manufacturer's instructions. In brief, mice were anesthetized and placed in the instrument, scanning parameters for Micro-CT were voltage 50Kvp, power 40 W, 6-frame superposition, field 4 cm×4 cm. Three-dimensional images were screenshot after scan and reconstruction, and bone density was calculated by Ansys software.
5.2. Retrovirus inhibitor Abacavir delayed joint aging of old mice Retrovirus inhibitor Abacavir was injected to articular cavity of old mice (23 months old), concentration was 10 mg/ml, once a week, 10 μl every time (as shown by FIG. 32A). (n=10)

[4] = tested on: old mice; assay: Long-term oral administration of Abacavir in drinking water to old mice; type: in vivo, mouse; details: for mice died: n=23
Method: Abacavir was dissolved in drinking water containing 0.4% DMSO at 2 mg/ml, mice of 18 months old were administered by feeding the water daily (n=23). The weight, hollow back, hair, skin, eye (cataract) and activity score of mice were measured 6 weeks, 12 weeks and 24 weeks after administration, grip strength was measured and a survival curve was plotted. […]
as §1
Mice were placed in the end of any arm of Y maze (trisection radiation maze, consisting of 3 arms with equal length (50 cm×18 cm×35 cm), the intersection angle between every two arms was 120 degree), allowed to explore freely for 5 min, animal behavior changes in 5 min were recorded by camera system, and the short-term spatial memory ability of mice was detected by recording the total times that the mice entered the arms and the rotations that the mice entered in turn the three arms of the Y maze.
Retrovirus inhibitor Abacavir was dissolved in drinking water for mice (containing 0.3% DMSO) at a concentration of 2 mg/ml (n=23), and mice of 18 months old was administered daily (as shown by FIG. 33A).

[5] = tested on: old mice; assay: Long-term intraperitoneal injection of Ratelgravir to old mice; type: in vivo, mouse; details: 16 weeks
Method: Ratelgravir was dissolved at 50 mg/ml in 30% PEG300+2% Tween80+2% DMSO, and intraperitoneally injected to mice at 18 months old, […] each time, twice a week (n=23). The weight, hollow back, hair, skin, cataract and activity score of mice were measured 8 weeks and 16 weeks after first injection, grip strength was measured and a survival curve was plotted.
as §1
The retrovirus integrase inhibitor Ratelgravir was dissolved in 30% PEG300+2% Tween80+2% DMSO at a concentration of 50 mg/ml, mice at 18 months old was injected intraperitoneally, […], 200 μl/injection, twice a week (as shown by FIG. 34A).

[6] = tested on: cGAS-STING pathway; assay: cGAS-STING innate immune pathway and SASP in hMPCs (Western blot, RT-qPCR); type: cell-based, human; details: knockdown in HGPS and WS hMPCs
Method: Cells were lysed in 1×SDS buffer (100 mM Tris-HCl, pH 6.8, 10% glycerol, 2% SDS and 2%2-mercaptoethanol), boiled for 10 min at 105° C. Protein concentration was measured by BCA kit. Cell lysate was subjected to SDS-PAGE electrophoresis, then transferred to PVDF membrane (Millipore). The membrane was incubated with primary antibody, incubated with secondary antibody conjugated to HRP after washing, then blotted with substrate, the substrate was the mixture of 1000 μL substrate A and 3 μL substrate B (substrate A: 0.2 mM cumaric acid, 1.25 mM luminal, 0.1 M Tris-HCl, pH 8.5; substrate B: 3% H2O2) or Super Signal West Femto Maximum Sensitivity Substrate (Thermo Fisher Scientific). Images were taken by Image Lab software. Quantification was conducted by ImageJ.
In accordance with the manufacturer's instructions, total RNA of cell was extracted by TRIzol (Thermo Fisher Scientific); reverse transcribed into cDNA with GoScript reverse transcription system (Promega) for RT-qPCR; RT-qPCR was conducted with THUNDERBIRD qPCR Mix (TOYOBO) and CFX384 real-time system (Bio-Rad Laboratories, Inc.).
To further study the activation of cGAS-STING DNA sensing pathway, the following key characteristics in different senescent hMPCs (including RS, HGPS and WS) and fibroblasts were detected: […] TANK binding kinase 1 (TBK1) and IFN regulating factor 3 (IRF3) as well as proinflammatory cytokines (e.g., IL1B andIL6), these factors were regarded as SASP factors.

[7] = articular cavity injection, P value not significant
[8] = drinking water 2 mg/ml, 24 weeks
[9] = drinking water 2 mg/ml, 30 weeks

## Nc1nc(NC2CC2)c2ncn([C@H]3C=C[C@@H](CO)C3)c2n1 [Abacavir, abacavir]
[1]
  Ki67 positive cells: increase
  SA-β-gal positive cells: reduce
[1]; listed as abacavir
  Ki67 positive cells: significantly were increased
  SA-β-gal positive cells: significantly were decreased
[2]
  HERVK DNA copy number: decreases
  HERVK transposition events: reduces
[2]; listed as abacavir
  HERVK DNA copy number: effectively reduce
  HERVK transposition events: effectively reduce
[3]; 15 weeks after injecting
  bone density of joint: increased
[3]; RT-qPCR of joint RNA
  expression of senescence-associated protein p21 in joint: decreased
  level of inflammatory factor IL1B in joint: decreased
  level of inflammatory factor IL6 in joint: decreased
[3]; [7]
  forced treadmill running distance: improve
  forced treadmill running time: improve
[3]; articular cavity injection, trend, P value not significant
  forced treadmill shocked time: reduce
[3]; old mice (23 months old), articular cavity 10 mg/ml, 10 μl once a week, 8 weeks after injecting, vs vehicle
  limb tension of mice: significantly was enhanced
[4]; 24 weeks after administering, control group 2 died
  mice died: 0
[4]; 30 weeks after administering, control group 4 died
  mice died: 1
[4]; Y Maze, 30 weeks
  spatial short-term memory ability: enhanced
[4]; [8]
  condition of hair: improve
  condition of hollow back: improve
  mobility ability of mice: enhance
[4]; [9]
  Y Maze rotations that the mice entered in turn the three arms: increased
  Y Maze total times that the mice entered the arms: increased
[4]; drinking water 2 mg/ml, up to 30 weeks
  survival rate of old mice: improve
[4]; mice of 18 months old, 2 mg/ml in drinking water daily, 12 weeks
  limb tension of mice: significantly enhanced

## Cc1nnc(C(=O)NC(C)(C)c2nc(C(=O)NCc3ccc(F)cc3)c(O)c(=O)n2C)o1 [Raltegravir]
[1]
  Ki67 positive cells: significantly were increased
  SA-β-gal positive cells: significantly were decreased
[1]; listed as Ratelgravir
  Ki67 positive cells: increase
  SA-β-gal positive cells: reduce
[5]; i.p. twice a week
  condition of hair: improve
  condition of hollow back: improve
[5]; mice at 18 months old, 50 mg/ml, 200 μl i.p. twice a week, vs vehicle
  limb tension of mice: significantly was increased

## shSTING-2 (guide GCCCGGATTCGAACTTACAAT; chemistry not given here)
[6]
  SASP: alleviated
  cell senescence: alleviated
  phosphorylation level of IRF3: reduced
  phosphorylation level of RelA: reduced
  phosphorylation level of TBK1: reduced
